Values joined by “and” are separate entries in the source; they are usually repeats but may differ in a detail not shown here. Equal entries are not always repeated. Where two headings read alike, the source gives them in different places.
What was measured:
[1] = target: T1, GPx4 embedded in a mmRM (membrane-bound GPx4) (Homo sapiens, UniProt P36969, U73G); test: NMR (15N-HSQC) titration of fragments against GPx4 embedded in DLPC/DPC mmRM, apparent Kd; format: binding; settings: ± standard error of global Kd fit
T1 construct: Truncated U46G-GPx4 with a TEV cleavable poly-histidine tag was inserted into vector; poly-histidine tag with TEV cleavage site; host or cells: BL21 (DE3) E. coli
T1 sequence (P36969 1-170 isoform P36969-2 U46G): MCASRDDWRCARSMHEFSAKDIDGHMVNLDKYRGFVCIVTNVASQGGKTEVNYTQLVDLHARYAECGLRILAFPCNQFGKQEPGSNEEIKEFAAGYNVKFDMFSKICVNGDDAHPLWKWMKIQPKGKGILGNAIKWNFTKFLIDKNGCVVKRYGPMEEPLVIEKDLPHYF
Excerpt: To assess whether the fragment hits are bound specifically to GPx4 and to calculate affinity, we performed NMR-based titrations. Chemical shift changes that approach saturation in a structurally localized manner target indicate specific binding.[24] This allows true positive hits to be separated from false positives and weak or nonspecific binders. Additionally, NMR-based titrations allow for the extraction of a binding affinity (Kd). To calculate apparent Kd values, CSP cutoffs were used to isolate the resonances with most shifting using 1 standard deviation above the average CSP. All 14 fragments identified from the deconvolutions were titrated up to 400 μM or 1 mM if needed. Of the 14, 9 had apparent Kds less than 1 mM and were identified as hits. Observed here is a 0.47% hit rate with best affinities in the μM range for the membrane-bound form of GPx4 and is consistent with ligandable and potentially druggable targets.[14],[57] […] The remaining five fragments, 10–14, were ruled out as weaker (>∼1 mM) or nonspecific binders. Weak or nonspecific binding could indicate that fragments partitioning to the mmRM surface and perturb the protein spectrum through a simple change in the chemical environment at the interface, among other possible nonspecific effects. […] We note that the weaker and nonspecific fragments were only eliminated due to interaction modes that are too weak or unproductive for advancement toward inhibitors; yet, binding was nevertheless detected. […] We note here that apparent Kd values reported in this study account for a total amount of fragment and protein within the mmRM sample and are not corrected for any potential concentrating effect due to localization of fragment to the mmRM surface or water phase.
NMR samples were prepared with ^15N-isotopically labeled protein with 10% v/v of d-pentane as the lock solvent (Sigma-Aldrich, St. Louis, MO). All NMR spectra were collected at 25 °C on a 700 MHz Bruker Avance III instrument. All NMR spectra were processed using NMRPipe[66] and analyzed using NMRFAM-Sparky.[67] Chemical shifts for GPx4 (BMRB 50955) were assigned from those previously published.[52] Chemical shift perturbations from ^15N-HSQC spectra were calculated using the following formula [drawing 1] where Δ^1H and Δ^15N are the changes in ^1H and ^15N chemical shifts, respectively.
The 14 fragments isolated from deconvolutions were purchased from Life Chemicals (fragments 1, 4, 6, and 11, and 12–14), Combi-Blocks (2, 3, 5, 9, and 10), or ChemBridge Hit2Lead (7 and 8). All fragment 1 and 5 analogues were also purchased from ChemBridge Hit2Lead. Fragments and analogues purchased from Life Chemicals and Hit2Lead are 90+% pure, while the fragments purchased from Combi-Blocks ranged from 95 to 97% pure. The day prior to the titration, a double-volume sample of encapsulated GPx4 was made before being split up into two separate vials. Half of the sample was added to the vial containing predried fragment corresponding to 400 μM or 1 mM. […] If they were, then the two samples were mixed to produce varying concentrations and to measure a titration curve. The top-shifting resonances were determined by calculating the average CSP at 400 μM or 1 mM and 1 and 2 standard deviations (σ) above that average. The CSP for the resonance at each fragment concentration was extracted and fit to a curve using an affinity equation that accounts for ligand depletion [drawing 2]
Any resonance producing a curve with an R^2 below 0.85 was removed, and the remaining resonances were then used to fit a global apparent Kd curve for the fragment hit. Standard error for Kd from the global fit of all of the selected residues is reported.

[2] = Fragment partitioning in DHPC/DMPC bicelles by 2D 1H-1H NOESY; format: physicochemical; settings: 5 mM fragment, 100% D2O
Excerpt: To confirm partitioning behavior, we tested fragments in DHPC/DMPC bicelles, which use a bulk aqueous solvent, and the hydrophobic phase is confined to the bicelle interior. To successfully collect NOESY data, the sample solvent was composed of 100% D2O. […] Together, the results highlight the partitioning behavior of fragments that bind to GPx4. Hydrophilic, hydrophobic, or fragments that partition to the surfactant shell are all capable of binding to the membrane-bound state of GPx4 and may be detected using this method.
Partitioning coefficients for fragment hits and analogues were calculated using a Marvin Log D calculator (Chemaxon) and were used to prioritize fragments for 2D NOESYs. mmRMs were premade as previously described and loaded with 5 mM dried fragment 1, 5, or 6 before shaking overnight. A high concentration of fragments is needed for these experiments to observe the intermolecular NOEs between the fragments and the membrane model components. For the DHPC/DMPC samples, the q = 1.0 bicelles were constructed routinely,[55] as described in the Supporting Information, with an additional step to ensure the complete removal of water before experimentation. An aliquot of buffer (100 mM Bis-Tris pH 6.0, 100 mM NaCl, and 10 mM DTT) was frozen and freeze-dried overnight to remove residual water. The dried buffer was then resuspended in 100% D2O, mixed, and frozen before another round of freeze-drying. The components were then resuspended in 100% D2O again before being incorporated into the DHPC fraction of the bicelle. The DHPC solution was then mixed with dried DMPC, and bicelle formation proceeded. The NOESY experimental design was based on a previous work.[60] All NMR spectra were collected at 25 °C on a 700 MHz Bruker Avance III instrument. The 2D data was collected with a 90° pulse width between 10.2 and 11.0 μs, which was optimized prior to each experiment. 128 complex increments were collected in the State-TPPI mode with 8 scans per increment, 2 s recycle time, and 250 ms mixing time. […]

[3] = Fragment partitioning in DLPC/DPC mmRMs by 2D 1H-1H NOESY; format: physicochemical; settings: 5 mM fragment, deuterated pentane and hexanol, no GPx4
Method: We sought to understand the potential membrane partitioning of these fragments by evaluating their behavior in mmRMs, again using fragments 1, 5, and 6 as our benchmarks. To evaluate fragment partitioning in the mmRM system, 2D ^1H–^1H NOESY experiments were performed, which report on the spatial proximity of intra- and intermolecular nuclei. […] The mmRMs were constructed from deuterated pentane and hexanol to reduce solvent signal and associated NOESY artifacts, which were still present, but NOESY measurements were possible.[60] […] Fragment 5 was the most hydrophobic fragment hit from this screen with a predicted cLog D of ∼2. […] A lack of NOEs to pentane is due to the necessity of using deuterated pentane for artifact reduction and attempts to directly observe solvent NOEs failed. The most hydrophilic fragment, fragment 6 with a predicted cLog D of about −2, is expected to predominantly have intermolecular interactions with the water phase of the mmRM (Figures 5c and S4c). However, interference from the water peak introduced streaking and precluded the visualization of clear cross-peaks.
Partitioning coefficients for fragment hits and analogues were calculated using a Marvin Log D calculator (Chemaxon) and were used to prioritize fragments for 2D NOESYs. mmRMs were premade as previously described and loaded with 5 mM dried fragment 1, 5, or 6 before shaking overnight. A high concentration of fragments is needed for these experiments to observe the intermolecular NOEs between the fragments and the membrane model components. For the DHPC/DMPC samples, the q = 1.0 bicelles were constructed routinely,[55] as described in the Supporting Information, with an additional step to ensure the complete removal of water before experimentation. An aliquot of buffer (100 mM Bis-Tris pH 6.0, 100 mM NaCl, and 10 mM DTT) was frozen and freeze-dried overnight to remove residual water. The dried buffer was then resuspended in 100% D2O, mixed, and frozen before another round of freeze-drying. […]

[4] = Table 2, analogues of fragment 5, GPx4 in mmRM, read-out: Apparent Kd
[5] = Table 1, GPx4 in DLPC/DPC mmRM, NMR titration up to 400 μM or 1 mM, read-out: Kd (apparent)

Kd [1, 4] | Kd [1, 5] | Compound | Partitioning in bicelles (intermolecular NOEs) [2] | Partitioning in mmRM (intermolecular NOEs) [3]
~30 µM and 30 µM |  | O=c1oc2c(-c3ccc(Cl)c(Cl)c3)cc(O)cc2s1 [Analog 5.5] |  | 
 | 105 ± 30 µM | O=c1cc(Nc2ccccc2)cc[nH]1 [Fragment 1, 4-(phenylamino)-1,2-dihydropyridin-2-one] | partitions to the bicelle | clear NOE cross-peaks to the surfactant shell
220 ± 90 µM | 220 ± 90 µM | O=c1oc2ccc(O)cc2s1 [Fragment 5, 5-hydroxy-1,3-benzoxathiol-2-one] | full partitioning into the hydrophobic core of the bicelles | the majority of the fragment must reside in the alkane phase of the reverse micelle
 | 230 ± 60 µM | COCCNCc1ccncc1.Cl [Fragment 6, (2-methoxyethyl)(4-pyridinylmethyl)amine hydrochloride] | no NOE cross-peaks to bicelle surfactants were observed | prefers to reside in the water core of the mmRM
